One may read the Emax as the size of the effect at its maximum, as opposed to the concentration needed.

This test deals with T1, human GPR52 (Homo sapiens, UniProt Q9Y2T5).
T1 construct: expressed in transfected cells; host or cells: HEKf suspension cells infected with BacMam virus
Description: GPR52 Agonist Functional cAMP Assay. The settings on record: for Emax: normalised to DMSO (0%) and maximal compound 7m (J. Med. Chem., 2014, 57, 5226) response (100%); for EC50: HEKf cells infected with human GPR52 BacMam, HTRF cAMP, 30 min at 37° C., read-out: pEC50 average (converted). In kind it is cell-based. The protocol:
HEKf suspension cells were infected for 24 h with 0.1% v/v human GPR52 expressing BacMam virus, a modified baculovirus designed for mammalian gene expression. Following BacMam infection, cells were pelleted by centrifugation (335 g, 5 min), resuspended in cell freezing medium (Sigma) and frozen at −150° C. until required. On experiment day, 25 nL GPR52 compound dilutions, prepared in DMSO, were stamped onto proxiplates (PerkinElmer) by a LabCyte ECHO acoustic dispenser. Frozen cells were thawed and resuspended in assay stimulation buffer (Cisbio) containing 0.5 mM 3-iso-butyl-1-methylxanthine (IBMX, Sigma) to achieve a density of 2000 cells per well. 10 μl cells were added to assay plates using a Multidrop Combi Reagent Dispenser (ThermoFisher) before centrifugation (335 g, 1 min). Cells were incubated with compounds at 37° C. for 30 min prior to addition of cAMP detection reagents (HiRange cAMP kit, Cisbio) which were prepared according to the manufacturer's instructions. Plates were shaken for 1 h at room temperature before reading on a PHERAstar FS plate reader (BMG Labtech) using standard HTRF settings. HTRF ratios were obtained by dividing the acceptor emissions (665 nm) by the donor emissions (620 nm) and multiplying by 10,000.
Background: In TR-FRET formats the signal depends on donor and acceptor labels being close together.

T1 sequence (Q9Y2T5 whole entry): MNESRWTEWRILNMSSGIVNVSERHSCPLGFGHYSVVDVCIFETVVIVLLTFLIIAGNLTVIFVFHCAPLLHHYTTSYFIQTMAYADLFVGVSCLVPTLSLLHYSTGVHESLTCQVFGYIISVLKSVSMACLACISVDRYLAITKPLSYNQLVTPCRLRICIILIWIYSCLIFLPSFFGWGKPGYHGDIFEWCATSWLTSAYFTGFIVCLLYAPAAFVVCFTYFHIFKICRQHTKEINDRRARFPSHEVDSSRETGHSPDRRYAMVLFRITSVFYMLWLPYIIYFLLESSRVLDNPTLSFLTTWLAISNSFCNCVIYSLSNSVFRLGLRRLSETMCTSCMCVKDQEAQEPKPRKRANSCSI

`Cc1nn(-c2cc(Cc3cc(F)cc(C(F)F)c3)ccn2)c(CO)c1C(N)=O` [Example 44, 1-(4-(3-(difluoromethyl)-5-fluorobenzyl)pyridin-2-yl)-5-(hydroxymethyl)-3-methyl-1H-pyrazole-4-carboxamide] showed a maximal response (Emax) of 101%. For the molecule `CNC(=O)c1cn(-c2cc(Cc3cc(F)cc(C(F)F)c3)ccn2)nc1C` [Example 45, 1-(4-(3-(difluoromethyl)-5-fluorobenzyl)pyridin-2-yl)-N,3-dimethyl-1H-pyrazole-4-carboxamide], the EC50 was 200 nM and the maximum response (Emax) came out at 91%. Taken in the same sequence, the figures for `CNC(=O)c1ccn(-c2cc(Cc3cc(F)cc(C(F)F)c3)ccn2)n1` [Example 46, 1-(4-(3-(difluoromethyl)-5-fluorobenzyl)pyridin-2-yl)-N-methyl-1H-pyrazole-3-carboxamide] were 50.1 nM and 88%. Taken in the same sequence, the figures for `NC(=O)c1cn(-c2cccc(Cc3cc(F)cc(C(F)(F)F)c3)n2)nc1CO` [Example 47, 1-(6-(3-fluoro-5-(trifluoromethyl)benzyl)pyridin-2-yl)-3-(hydroxymethyl)-1H-pyrazole-4-carboxamide] were 501 nM and 52%. Taken in the same sequence, the figures for `CNC(=O)c1cn(-c2cccc(Cc3cc(F)cc(C(F)(F)F)c3)n2)nc1CO` [Example 48, 1-(6-(3-fluoro-5-(trifluoromethyl)benzyl)pyridin-2-yl)-3-(hydroxymethyl)-N-methyl-1H-pyrazole-4-carboxamide] were 1580 nM and 36%. For the molecule `NC(=O)c1nn(-c2cc(Cc3cc(F)cc(C(F)(F)F)c3)ccn2)cc1CO` [Example 49, 1-(4-(3-fluoro-5-(trifluoromethyl)benzyl)pyridin-2-yl)-4-(hydroxymethyl)-1H-pyrazole-3-carboxamide], the EC50 was 63.1 nM and the Emax turned out to be 93%. The like results for `CNC(=O)c1nn(-c2cc(Cc3cc(F)cc(C(F)(F)F)c3)ccn2)cc1CO` [Example 50, 1-(4-(3-fluoro-5-(trifluoromethyl)benzyl)pyridin-2-yl)-4-(hydroxymethyl)-N-methyl-1H-pyrazole-3-carboxamide] were, in that order, 10 nM and 82%. The like results for `NC(=O)c1nn(-c2cccc(Cc3cc(F)cc(C(F)(F)F)c3)n2)cc1CO` [Example 51, 1-(6-(3-fluoro-5-(trifluoromethyl)benzyl)pyridin-2-yl)-4-(hydroxymethyl)-1H-pyrazole-3-carboxamide] were, in that order, 501 nM and 83%. Taken in the same sequence, the figures for `Cc1cnc(Cc2cc(F)cc(C(F)(F)F)c2)cc1-n1cc(C(N)=O)c(C)n1` [Example 52, 1-(2-(3-fluoro-5-(trifluoromethyl)benzyl)-5-methylpyridin-4-yl)-3-methyl-1H-pyrazole-4-carboxamide] were 100 nM and 100%.

Regarding `Cc1c(C(N)=O)c(CO)nn1-c1cc(Cc2cc(F)cc(C(F)(F)F)c2)ccn1` [Example 53, 1-(4-(3-fluoro-5-(trifluoromethyl)benzyl)pyridin-2-yl)-3-(hydroxymethyl)-5-methyl-1H-pyrazole-4-carboxamide], the EC50 was 79.4 nM and the maximum response (Emax) is 97%. As for `NC(=O)c1cc(CO)n(-c2cc(Cc3cc(F)cc(C(F)(F)F)c3)ccn2)n1` [Example 54, 1-(4-(3-fluoro-5-(trifluoromethyl)benzyl)pyridin-2-yl)-5-(hydroxymethyl)-1H-pyrazole-3-carboxamide], the EC50 was 79.4 nM and the maximum response (Emax) was 92%. Turning to `CNC(=O)c1ccn(-c2ccnc(Cc3cc(F)cc(C(F)(F)F)c3)c2)n1` [Example 55, 1-(2-(3-fluoro-5-(trifluoromethyl)benzyl)pyridin-4-yl)-N-methyl-1H-pyrazole-3-carboxamide], the EC50 is 126 nM and the Emax was 83%.
